Data taken from ChEMBL document CHEMBL4483862, “Open-source discovery of chemical leads for next-generation chemoprotective antimalarials” (2018).

System: Plasmodium berghei
Test: Luciferase/luciferin-expressing antifolate-resistant parasites were used to infect a culture of HepG2 cells that were pre-incubated with compounds. Infected hepatocytes emit light due to the luciferase reaction. Assay results are presented as the percent inhibition of light emission compared to control. […]
Assay type: functional
Details: sporozoite; for IC90: read-out: LUCIFERASE INFECTION ASSAY - IC90

Structure (SMILES)	IC90	also measured
Cc1ccc(S(=O)(=O)n2c3ccc(Cl)cc3c3nc(C)sc32)cc1	> 8.76 µM	IC50 (FFLUC_HILL_SLOPE 13.1, FFLUC_R_SQUARED 0.689, read-out: LUCIFERASE INFECTION ASSAY - IC50): > 8.76 µM
COc1ccc(-c2cc(NC=O)c3ncc(-c4cc(OC)c(OC)c(OC)c4)n3c2)c(OC)c1	5.96 µM	IC50 (FFLUC_HILL_SLOPE 13.2, FFLUC_R_SQUARED 0.535, HEPG2TOX_HILL_SLOPE 2.06, HEPG2TOX_R_SQUARED 0.871, PBLUC_HILL_SLOPE 2.04, PBLUC_R_SQUARED 0.466, read-out: LUCIFERASE INFECTION ASSAY - IC50): 2.03 µM
O=C(Nc1nc2ccccc2[nH]1)c1ccccn1	> 10 µM	IC50 (FFLUC_HILL_SLOPE 12.7, FFLUC_R_SQUARED 0.6, read-out: LUCIFERASE INFECTION ASSAY - IC50): > 10 µM
Cc1cc(NC(=O)Cn2ncc(Br)c(Br)c2=O)n(C)n1	> 10 µM	IC50 (FFLUC_HILL_SLOPE 13, FFLUC_R_SQUARED 0.376, HEPG2TOX_HILL_SLOPE 25.8, HEPG2TOX_R_SQUARED 0.794, PBLUC_HILL_SLOPE 3.09, PBLUC_R_SQUARED 0.556, read-out: LUCIFERASE INFECTION ASSAY - IC50): 5.35 µM
Nc1c(NCCO)cc(NC2CCCCC2)c2c1C(=O)c1ccccc1C2=O	> 8.7 µM	IC50 (FFLUC_HILL_SLOPE 12.9, FFLUC_R_SQUARED 0.405, PBLUC_HILL_SLOPE 2.49, PBLUC_R_SQUARED 0.563, read-out: LUCIFERASE INFECTION ASSAY - IC50): > 8.7 µM
CCCCCCOCC[N+](C)(CCOCCCCCC)CCOCCCCCC	1.08 µM	IC50 (FFLUC_HILL_SLOPE 13.1, FFLUC_R_SQUARED 0.46, HEPG2TOX_HILL_SLOPE 1.63, HEPG2TOX_R_SQUARED 0.995, PBLUC_HILL_SLOPE 15.2, PBLUC_R_SQUARED 0.558, read-out: LUCIFERASE INFECTION ASSAY - IC50): 0.933 µM
CC1CCN(S(=O)(=O)c2ccc(C(=O)NCc3cccc(C(F)(F)F)c3)cc2)CC1	> 10 µM	IC50 (FFLUC_HILL_SLOPE 13.2, FFLUC_R_SQUARED 0.207, read-out: LUCIFERASE INFECTION ASSAY - IC50): > 10 µM
Fc1ccc(N2c3cc(F)ccc3N=C(c3ccccc3)C2c2ccccc2)cc1 (configuration not stated)	> 8.32 µM	IC50 (FFLUC_HILL_SLOPE 13.2, FFLUC_R_SQUARED 0.317, HEPG2TOX_HILL_SLOPE 1.35, HEPG2TOX_R_SQUARED 0.526, PBLUC_HILL_SLOPE 1.66, PBLUC_R_SQUARED 0.328, read-out: LUCIFERASE INFECTION ASSAY - IC50): 5.47 µM
COc1ccc(C2=Cc3nc4ccccc4n3C3(C(F)(F)F)OC(c4ccccc4)=NN23)cc1 (configuration not stated)	> 10 µM	IC50 (FFLUC_HILL_SLOPE 13.2, FFLUC_R_SQUARED 0.193, HEPG2TOX_HILL_SLOPE 11.1, HEPG2TOX_R_SQUARED 0.974, PBLUC_HILL_SLOPE 14.1, PBLUC_R_SQUARED 0.236, read-out: LUCIFERASE INFECTION ASSAY - IC50): 9.44 µM
N#Cc1c(Cl)nsc1NCc1cnn(Cc2ccccc2)c1	1.22 µM	IC50 (FFLUC_HILL_SLOPE 12.9, FFLUC_R_SQUARED 0.244, HEPG2TOX_HILL_SLOPE 2.27, HEPG2TOX_R_SQUARED 0.949, PBLUC_HILL_SLOPE 20.5, PBLUC_R_SQUARED 0.627, read-out: LUCIFERASE INFECTION ASSAY - IC50): 1.1 µM
CC(C)(C)NS(=O)(=O)c1cccc2c(N)cccc12	5.45 µM	IC50 (FFLUC_HILL_SLOPE 12.8, FFLUC_R_SQUARED 0.416, HEPG2TOX_HILL_SLOPE 12.3, HEPG2TOX_R_SQUARED 0.393, PBLUC_HILL_SLOPE 11.3, PBLUC_R_SQUARED 0.345, read-out: LUCIFERASE INFECTION ASSAY - IC50): 4.49 µM
C=C(C)C/N=c1\scc(-c2ccc(OC)cc2OC)n1/N=C(\C)c1ccc(OC)cc1	> 10 µM	IC50 (FFLUC_HILL_SLOPE 13, FFLUC_R_SQUARED 0.36, read-out: LUCIFERASE INFECTION ASSAY - IC50): > 10 µM
CCOC(=O)c1c(CC(C)C)csc1NC(=O)CNc1ccc(-n2cnnn2)cc1	> 10 µM	IC50 (FFLUC_HILL_SLOPE 13, FFLUC_R_SQUARED 0.249, read-out: LUCIFERASE INFECTION ASSAY - IC50): > 10 µM
C=C1N(C)c2ccc(NC(=O)c3ccccc3)cc2C1(C)C	3.46 µM	IC50 (FFLUC_HILL_SLOPE 13, FFLUC_R_SQUARED 0.522, HEPG2TOX_HILL_SLOPE 2.51, HEPG2TOX_R_SQUARED 0.97, PBLUC_HILL_SLOPE 14.6, PBLUC_R_SQUARED 0.431, read-out: LUCIFERASE INFECTION ASSAY - IC50): 2.98 µM
COC(=O)c1ccc(C(=O)OC)c(N2C(=O)C=CC2=O)c1	> 11.4 µM	IC50 (FFLUC_HILL_SLOPE 12.8, FFLUC_R_SQUARED 0.0109, PBLUC_HILL_SLOPE 0.51, PBLUC_R_SQUARED 0.565, read-out: LUCIFERASE INFECTION ASSAY - IC50): 0.503 µM
COc1cccc(-c2[nH]nc3ccnc(-c4ccc(C(C)C)cc4)c23)c1	> 10 µM	IC50 (FFLUC_HILL_SLOPE 13.2, FFLUC_R_SQUARED 0.418, read-out: LUCIFERASE INFECTION ASSAY - IC50): > 10 µM

Structure (SMILES)	IC90	also measured
CC(=O)N(c1nn(CN(C2CC2)C2CCS(=O)(=O)C2)c(=S)s1)C1CC1 (configuration not stated)	> 10 µM	IC50 (FFLUC_HILL_SLOPE 12.8, FFLUC_R_SQUARED 0.42, read-out: LUCIFERASE INFECTION ASSAY - IC50): > 10 µM
COc1ccc(-c2nc3ccccc3n2-c2cc(-c3ccccc3)nn2-c2ccccc2)cc1	8.43 µM	IC50 (FFLUC_HILL_SLOPE 12.7, FFLUC_R_SQUARED 0.403, HEPG2TOX_HILL_SLOPE 1.43, HEPG2TOX_R_SQUARED 0.399, PBLUC_HILL_SLOPE 4.08, PBLUC_R_SQUARED 0.666, read-out: LUCIFERASE INFECTION ASSAY - IC50): 4.92 µM
CC(C)(C)c1ccc(-c2nc(-c3ccc(C(F)(F)F)cc3)cs2)cc1	> 9.13 µM	IC50 (FFLUC_HILL_SLOPE 12.9, FFLUC_R_SQUARED 0.362, PBLUC_HILL_SLOPE 0.825, PBLUC_R_SQUARED 0.291, read-out: LUCIFERASE INFECTION ASSAY - IC50): 3.25 µM
Cc1cccc(-c2noc(CNC(=O)Cc3ccc(-c4ccccc4)cc3)n2)c1	3.18 µM	IC50 (FFLUC_HILL_SLOPE 13.2, FFLUC_R_SQUARED 0.46, HEPG2TOX_HILL_SLOPE 2.91, HEPG2TOX_R_SQUARED 0.962, PBLUC_HILL_SLOPE 21.5, PBLUC_R_SQUARED 0.134, read-out: LUCIFERASE INFECTION ASSAY - IC50): 2.87 µM
CC(C)(C)c1nnc(Sc2ncc([N+](=O)[O-])s2)[nH]1	11.3 µM	IC50 (FFLUC_HILL_SLOPE 12.8, FFLUC_R_SQUARED 0.253, HEPG2TOX_HILL_SLOPE 7.13, HEPG2TOX_R_SQUARED 0.706, PBLUC_HILL_SLOPE 14.6, PBLUC_R_SQUARED 0.134, read-out: LUCIFERASE INFECTION ASSAY - IC50): 9.74 µM
Cc1ccc(C(c2cc(Cl)c3cccnc3c2O)N2CCCC2)cc1 (configuration not stated)	4.12 µM	IC50 (FFLUC_HILL_SLOPE 12.7, FFLUC_R_SQUARED 0.41, HEPG2TOX_HILL_SLOPE 6.94, HEPG2TOX_R_SQUARED 0.0505, PBLUC_HILL_SLOPE 13.5, PBLUC_R_SQUARED 0.562, read-out: LUCIFERASE INFECTION ASSAY - IC50): 3.5 µM
Cc1cc2occ(CC(=O)N(c3ccc(F)cc3)c3nc4ccccc4s3)c2cc1C(C)C	> 10 µM	IC50 (FFLUC_HILL_SLOPE 13, FFLUC_R_SQUARED 0.172, read-out: LUCIFERASE INFECTION ASSAY - IC50): > 10 µM
CCOC(=O)C1=C(C)NC(C)=C(C(=O)OCC)C1c1ccc(-c2cc(C(F)(F)F)cc(C(F)(F)F)c2)o1	> 6.21 µM	IC50 (FFLUC_HILL_SLOPE 13.3, FFLUC_R_SQUARED 0.16, read-out: LUCIFERASE INFECTION ASSAY - IC50): > 6.21 µM
N#CC(C(=O)c1ccccc1NC(=O)C(F)(F)F)c1nc(-c2ccc(Cl)cc2)cs1 (configuration not stated)	> 10 µM	IC50 (FFLUC_HILL_SLOPE 12.8, FFLUC_R_SQUARED 0.656, read-out: LUCIFERASE INFECTION ASSAY - IC50): > 10 µM
CCO/C=N/Nc1nc(C(F)(F)F)nc2c1cnn2-c1ccccc1	> 10 µM	IC50 (FFLUC_HILL_SLOPE 12.8, FFLUC_R_SQUARED 0.468, PBLUC_HILL_SLOPE 1.59, PBLUC_R_SQUARED 0.442, read-out: LUCIFERASE INFECTION ASSAY - IC50): 4.62 µM
O=S(=O)(/N=C(\N/N=C/c1ccc(Cl)cc1)N1CCCC1)c1ccc(-n2nc(C(F)(F)F)cc2-c2cccs2)cc1	> 5.44 µM	IC50 (FFLUC_HILL_SLOPE 13, FFLUC_R_SQUARED 0.6, read-out: LUCIFERASE INFECTION ASSAY - IC50): > 5.44 µM
N#C/C(=C\c1ccc(O)cc1)c1nc(C(c2ccccc2)c2ccccc2)no1	> 10 µM	IC50 (FFLUC_HILL_SLOPE 12.8, FFLUC_R_SQUARED 0.5, read-out: LUCIFERASE INFECTION ASSAY - IC50): > 10 µM
N#C/C(=N\Nc1cc(C(F)(F)F)cc(C(F)(F)F)c1)C(=O)c1ccco1	8.44 µM	IC50 (FFLUC_HILL_SLOPE 13.1, FFLUC_R_SQUARED 0.556, HEPG2TOX_HILL_SLOPE 1.19, HEPG2TOX_R_SQUARED 0.748, PBLUC_HILL_SLOPE 4.82, PBLUC_R_SQUARED 0.319, read-out: LUCIFERASE INFECTION ASSAY - IC50): 5.35 µM
N=C1C(=S)N(c2ccc(Cl)c(Cl)c2)C(=O)N1c1ccc(OC(F)(F)F)cc1	> 7.6 µM	IC50 (FFLUC_HILL_SLOPE 13.1, FFLUC_R_SQUARED 0.176, read-out: LUCIFERASE INFECTION ASSAY - IC50): > 7.6 µM
Cc1ccc2nc(SCC(=O)c3cc(C)n(-c4ccc5c(c4)OCCO5)c3C)[nH]c2c1	> 10 µM	IC50 (FFLUC_HILL_SLOPE 12.9, FFLUC_R_SQUARED 0.345, HEPG2TOX_HILL_SLOPE 0.403, HEPG2TOX_R_SQUARED 0.877, read-out: LUCIFERASE INFECTION ASSAY - IC50): > 10 µM
